System: HEK293E cells
Assay: Influence of temperature on IgG batch titer and comparison with sodium butyrate (Example 2)
Assay type: cell-based, Human
Details: day 5 after transfection
Method: No. 14571C-[…]; Lot No. 6A0093; SAFC Biosciences, Lenexa, Kans., USA, “Ex-Cell” medium; note: “Ex-Cell” medium-as used herein-refers to a medium comprising 4 mmol/l L-glutamine) in a 50-ml filter tube each (TPP AG, Trasadingen, Switzerland; Cat. No. 87050, Lot 20050174). In a separate set, 10 million suspension-adapted CHO DG44 cells were resuspended in 0.5 ml of ProCHO5 serum-free medium with 4 mmol/[…] hypoxanthine and 0.194 g/l thymidine (BioWhittaker (Lonza), Belgium; Cat. No. BE12-[…]; Lot No. 7 MB0040; “ProCHO5” medium; note: “ProCHO5” medium-as used herein-refers to a medium comprising 4 mmol/[…] hypoxanthine and 0.194 g/l thymidine) in a 50-ml filter tube each (TPP AG, Trasadingen, Switzerland; Cat. No. 87050, Lot 20050174). Then 12.5 μg plasmid DNA at a concentration of 1 μg/μl was added in each tube with the following composition 50% (6.25 μg) p-LC (SEQ ID NO: 1) 50% (6.25 μg) p-HC (SEQ ID NO: 3). Plasmid p-LC comprises the genetic information for the production of the light chain of an IgG antibody, plasmid p-HC comprises the genetic information for the production of the heavy chain of an IgG antibody. The particular vector constructs used in the present invention can also be obtained from the inventors. The inventors can be contacted via e-mail at […]. Moreover, commercial services do exist that produce any desired nucleotide sequence even comprising several kilobase pairs including complete expression cassettes in plasmid backgrounds (e.g., Invitrogen, Carlsbad, USA; Geneart, Germany.) Thus, providing the genetic sequence information of the plasmids should enable one of ordinary skill in the art to order the plasmids of the present invention at one of the commercial services listed. After shortly mixing the DNA with the cells by gentle shaking, 25 μg of 25-kd linear polyethyleneimine (“PEI”; Polysciences, Eppelheim, Germany; [2]) were added at a concentration of 1 μg/μl to each of the tubes. After shortly mixing by gentle shaking, the filter tubes containing the cells together with the DNA and PEI were transferred into an orbital shaker (Kühner Shaker Cabinet ISF-4-W, “Kühner shaker”, Kühner AG, Birsfelden, Switzerland), and the cells were incubated for 4 hours at 37° C. in a 5% CO2 atmosphere under shaking at 180 rpm. After that time, 4.5 ml of Ex-Cell medium were added to each of the filter tubes containing HEK 293 cells and 4.5 ml of Pro-CHO5 were added to each of the filter tubes containing CHO DG44 cells. […] No. […] Sigma-Aldrich Chemie GmbH, Industriestrasse 25, CH-9471 Buchs SG) was added to the corresponding tubes at the corresponding final concentrations. The cells then were returned into the Kühner shaker. Half the tubes were incubated at 37° C. in a 5% CO2 atmosphere under shaking at 180 rpm, the other half was incubated at 31° C. […] The ELISA was performed as published in prior art. In short, Goat anti-human kappa light chain IgG (Biosource) was used for coating the ELISA-plates, and with AP-conjugated goat anti-human gamma chain IgG (Biosource) the synthesized IgG1 was detected. NPP was used as a substrate for the alkaline phosphatase. Absorption was measured at 405 nm against 490 nm using a microplate reader (SPECTRAmaxTM340; Molecular Devices, Palo Alto, Calif., USA).

[1] = 3.8 mmol/l VPA, relative to control = 1

## CCCC(CCC)C(=O)O [VPA, valproic acid]
[1]
  Batch titer increase at 31° C.: 5.3 ± 0.4
  Batch titer increase at 37° C.: 5.3 ± 0.5
31° C. and 37° C.
  performance compared with sodium butyrate (batch titer increase): slightly better performance than sodium butyrate

From patent US20090023186A1, “USE OF VALPROIC ACID FOR ENHANCING PRODUCTION OF RECOMBINANT PROTEINS IN MAMMALIAN CELLS” (EXCELLGENE SA, priority 2007, published 2009)
